Test results from US20090076047A1, “2-Substituted Hydroxylaminopyrimidine, Method for the Production and the Use Thereof in the Form of Pesticides” (priority 2005, published 2009).

How the values were obtained:
[1] = tested on: Erysiphe [syn. Blumeria] graminis forma specialis. tritici; assay: Activity against mildew of wheat caused by Erysiphe [syn. Blumeria] graminis forma specialis tritici (greenhouse); type: in vivo, Erysiphe graminis f. sp. tritici; details: 250 ppm, wheat seedlings, protective, assessed after 7 days, % of total leaf area; control 90% infected
Septoria tritici = assay: Microtest No. 1: activity against the Septoria leaf spot pathogen Septoria tritici in the microtiter test; type: cell-based; details: 125 ppm, day 7 after inoculation, absorption at 405 nm; active compound-free control = 100%
Protocol: Microtest No. 1—Activity Against the Septoria Leaf Spot Pathogen Septoria tritici in the Microtiter Test The stock solution was pipetted into a microtiter plate (MTP) and diluted with an aqueous malt-based fungus nutrient medium to the stated active compound concentration. An aqueous spore suspension of Septoria tritici was then added. The plates were placed in a water vapor-saturated chamber at temperatures of 18° C. On day 7 after the inoculation, the MTPs were measured in an absorption photometer at 405 nm. The measured parameters were compared to the growth of the active compound-free control variant (100%) and the fungus- and active compound-free blank value to determine the relative growth in % of the pathogens in the individual active compounds.

Pyricularia oryzae = type: cell-based; details: 125 ppm, day 7 after inoculation, absorption at 405 nm; active compound-free control = 100%
Puccinia recondita = assay: Curative activity against brown rust of wheat caused by Puccinia recondita (greenhouse); type: in vivo; details: 63 ppm, wheat sprayed 1 day after inoculation (curative), 7 days; untreated control 90% infected
Protocol: The solution was then made up to 100 ml with water. This stock solution was diluted to the active compound concentration stated below using the solvent/emulsifier/water mixture described. Curative Activity Against Brown Rust of Wheat Caused by Puccinia recondita Leaves of potted wheat seedlings of the cultivar “Kanzler” were inoculated with a spore suspension of brown rust (Puccinia recondita). The pots were then placed into a chamber with high atmospheric humidity (90-95%) at 20-22° C. for 24 hours. During this time, the spores germinated and the germ tubes penetrated into the leaf tissue. The next day, the infected plants were sprayed to runoff point with the active compound solution described above having the concentration of active compound stated below. After the spray coating had dried on, the test plants were cultivated in a greenhouse at temperatures between 20 and 22° C. and at 65 to 70% relative atmospheric humidity for 7 days. The extent of the rust fungus development on the leaves was then determined.

Compound	relative growth (Septoria tritici) [%]	relative growth (Pyricularia oryzae) [%]	melting point [°C]	other results
CON(CC1CC1)c1nc(C#N)nc(Cl)c1-c1c(F)cccc1F [Compound 35]	–	–	–	infection [1]: 5%
COc1nc(Cl)c(-c2c(F)cc(F)cc2F)c(N(CC2CC2)OC)n1 [Compound 40]	0	0	–	–
CONC(=N)c1nc(Cl)c(-c2c(F)cc(F)cc2F)c(N2CCCO2)n1 [Compound 17, N-Methoxy-4-chloro-6-(isoxazolidin-2-yl)-5-(2,4,6-trifluorophenyl)-2-pyrimidinecarboximidamide]	–	–	192 to 193	–
CON(c1nc(C#N)nc(Cl)c1-c1c(F)cccc1Cl)C(C)C [Compound 32]	0	0	–	–
CON=C(N)c1nc(Cl)c(-c2c(F)cccc2Cl)c(N(CC2CC2)OC)n1 [Compound 33]	–	–	–	infection (Puccinia recondita): 0%
CC1CCCN(c2nc(-n3cncn3)nc(Cl)c2-c2c(F)cc(F)cc2F)O1 (centres unmarked) [Compound 21, 4-Chloro-6-(6-methyltetrahydro-2H-(1,2)-oxazin-2-yl)-2-(1,2,4-triazol-1-yl)-5-(2,4,6-trifluorophenyl)pyrimidine]	–	–	141 to 143	–
